In the supplement of paper PMC10307832:

What was measured:
Test in all cases: relative viability (nuclei count vs DMSO), 5 days (fraction); higher = more cells survive
[1] = tested on: NCI-H1563
In short: (§1)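 For relative viability, nuclei counts in treated wells were divided by those in vehicle wells. Lung cancer cell lines had been pin-tool dosed in 1536-well plates the day after seeding and cultured for 5 days, then fixed and stained in one step (final 0.05% Triton X-100, 1% formaldehyde, 1 ug/ml Hoechst) and imaged at 4×. Doses were one drug alone or a fixed anchor-drug dose plus five library-drug doses (not always all listed) in √10 steps, and values are duplicate-plate medians.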

[2] = tested on: ABC-1
In short: as §1

[3] = tested on: NCI-H520
In short: as §1

[4] = tested on: NCI-H1734
In short: as §1

[5] = tested on: H3255
In short: as §1

[6] = tested on: PC-14
In short: as §1

[7] = tested on: NCI-H1650
In short: as §1

[8] = tested on: EKVX
In short: as §1

[9] = tested on: RERF-LC-KJ
In short: as §1

[10] = tested on: LK-2
In short: as §1

[11] = tested on: SW 1573
In short: as §1

[12] = tested on: NCI-H1437
In short: as §1

[13] = tested on: NCI-H2228
In short: as §1

[14] = tested on: NCI-H2405
In short: as §1

[15] = tested on: PC-3 [JPC-3]
In short: as §1

[16] = tested on: HCC-15
In short: as §1

[17] = tested on: NCI-H322M
In short: as §1

[18] = tested on: HCC-827
In short: as §1

[19] = tested on: NCI-H661
In short: as §1

[20] = tested on: CAL-12T
In short: as §1

[21] = tested on: COR-L23
In short: as §1

[22] = tested on: NCI-H1355
In short: as §1

CC1(C)CCC(c2ccc(Cl)cc2)=C(CN2CCN(c3ccc(C(=O)NS(=O)(=O)c4ccc(N[C@H](CCN5CCOCC5)CSc5ccccc5)c(S(=O)(=O)C(F)(F)F)c4)cc3)CC2)C1 [Navitoclax] + C[C@@H](Oc1cc(-c2cnn(C3CCNCC3)c2)cnc1N)c1c(Cl)ccc(F)c1Cl [Crizotinib] (partner 1 µM)
relative viability ([1]; first compound 0.005 µM): 0.908 | relative viability ([1]; first compound 0.01581 µM): 0.92 | relative viability ([1]; first compound 0.05 µM): 0.897 | relative viability ([1]; first compound 0.1581 µM): 0.808 | relative viability ([1]; first compound 0.5 µM): 1.12 | relative viability ([2]; first compound 0.005 µM): 1.19 | relative viability ([2]; first compound 0.01581 µM): 1.4 | relative viability ([2]; first compound 0.05 µM): 1.19 | relative viability ([2]; first compound 0.1581 µM): 1.14 | relative viability ([2]; first compound 0.5 µM): 0.983 | relative viability ([3]; first compound 0.005 µM): 0.751 | relative viability ([3]; first compound 0.01581 µM): 0.715 | relative viability ([3]; first compound 0.05 µM): 0.762 | relative viability ([3]; first compound 0.1581 µM): 0.737 | relative viability ([3]; first compound 0.5 µM): 0.79 | relative viability ([4]; first compound 0.005 µM): 0.705 | relative viability ([4]; first compound 0.01581 µM): 0.681 | relative viability ([4]; first compound 0.1581 µM): 0.785 | relative viability ([4]; first compound 0.5 µM): 0.693 | relative viability ([5]; first compound 0.005 µM): 0.902 | relative viability ([5]; first compound 0.01581 µM): 1.06 | relative viability ([5]; first compound 0.05 µM): 0.807 | relative viability ([5]; first compound 0.1581 µM): 0.891 | relative viability ([5]; first compound 0.5 µM): 0.835 | relative viability ([6]; first compound 0.005 µM): 0.905 | relative viability ([6]; first compound 0.01581 µM): 0.977 | relative viability ([6]; first compound 0.05 µM): 0.951 | relative viability ([6]; first compound 0.1581 µM): 0.886 | relative viability ([6]; first compound 0.5 µM): 0.952 | relative viability ([7]; first compound 0.005 µM): 0.995 | relative viability ([7]; first compound 0.01581 µM): 1.13 | relative viability ([7]; first compound 0.05 µM): 1.17 | relative viability ([7]; first compound 0.1581 µM): 0.938 | relative viability ([7]; first compound 0.5 µM): 0.667 | relative viability ([8]; first compound 0.005 µM): 1 | relative viability ([8]; first compound 0.01581 µM): 1.16 | relative viability ([8]; first compound 0.05 µM): 1.08 | relative viability ([8]; first compound 0.1581 µM): 0.93 | relative viability ([8]; first compound 0.5 µM): 0.888 | relative viability ([9]; first compound 0.005 µM): 0.825 | relative viability ([9]; first compound 0.01581 µM): 0.712 | relative viability ([9]; first compound 0.05 µM): 0.789 | relative viability ([9]; first compound 0.1581 µM): 0.796 | relative viability ([9]; first compound 0.5 µM): 0.833 | relative viability ([10]; first compound 0.005 µM): 0.226 | relative viability ([10]; first compound 0.01581 µM): 0.21 | relative viability ([10]; first compound 0.05 µM): 0.246 | relative viability ([10]; first compound 0.1581 µM): 0.191 | relative viability ([10]; first compound 0.5 µM): 0.263 | relative viability ([11]; first compound 0.005 µM): 0.716 | relative viability ([11]; first compound 0.01581 µM): 0.794 | relative viability ([11]; first compound 0.05 µM): 0.674 | relative viability ([11]; first compound 0.1581 µM): 0.687 | relative viability ([11]; first compound 0.5 µM): 0.981 | relative viability ([12]; first compound 0.005 µM): 0.916 | relative viability ([12]; first compound 0.01581 µM): 0.93 | relative viability ([12]; first compound 0.05 µM): 0.892 | relative viability ([12]; first compound 0.1581 µM): 0.961 | relative viability ([12]; first compound 0.5 µM): 0.873 | relative viability ([13]; first compound 0.005 µM): 0.633 | relative viability ([13]; first compound 0.01581 µM): 0.553 | relative viability ([13]; first compound 0.05 µM): 0.573 | relative viability ([13]; first compound 0.1581 µM): 0.454 | relative viability ([13]; first compound 0.5 µM): 0.52 | relative viability ([14]; first compound 0.005 µM): 0.788 | relative viability ([14]; first compound 0.01581 µM): 0.948 | relative viability ([14]; first compound 0.05 µM): 0.824 | relative viability ([14]; first compound 0.1581 µM): 0.838 | relative viability ([14]; first compound 0.5 µM): 0.794 | relative viability ([15]; first compound 0.005 µM): 1.01 | relative viability ([15]; first compound 0.01581 µM): 0.986 | relative viability ([15]; first compound 0.05 µM): 0.927 | relative viability ([15]; first compound 0.1581 µM): 0.991 | relative viability ([15]; first compound 0.5 µM): 0.963 | relative viability ([16]; first compound 0.005 µM): 0.802 | relative viability ([16]; first compound 0.01581 µM): 0.848 | relative viability ([16]; first compound 0.05 µM): 0.883 | relative viability ([16]; first compound 0.1581 µM): 0.822 | relative viability ([16]; first compound 0.5 µM): 0.786 | relative viability ([17]; first compound 0.005 µM): 0.885 | relative viability ([17]; first compound 0.01581 µM): 0.954 | relative viability ([17]; first compound 0.05 µM): 0.839 | relative viability ([17]; first compound 0.1581 µM): 0.858 | relative viability ([17]; first compound 0.5 µM): 0.92 | relative viability ([18]; first compound 0.005 µM): 0.96 | relative viability ([18]; first compound 0.01581 µM): 0.962 | relative viability ([18]; first compound 0.05 µM): 0.966 | relative viability ([18]; first compound 0.1581 µM): 0.958 | relative viability ([18]; first compound 0.5 µM): 0.935 | relative viability ([19]; first compound 0.005 µM): 1.12 | relative viability ([19]; first compound 0.01581 µM): 0.964 | relative viability ([19]; first compound 0.05 µM): 0.947 | relative viability ([19]; first compound 0.1581 µM): 0.951 | relative viability ([19]; first compound 0.5 µM): 1 | relative viability ([20]; first compound 0.005 µM): 0.589 | relative viability ([20]; first compound 0.01581 µM): 0.653 | relative viability ([20]; first compound 0.05 µM): 0.725 | relative viability ([20]; first compound 0.1581 µM): 0.744 | relative viability ([20]; first compound 0.5 µM): 0.536 | relative viability ([21]; first compound 0.005 µM): 0.618 | relative viability ([21]; first compound 0.01581 µM): 0.712 | relative viability ([21]; first compound 0.05 µM): 0.686 | relative viability ([21]; first compound 0.1581 µM): 0.664 | relative viability ([21]; first compound 0.5 µM): 0.643 | relative viability ([22]; first compound 0.005 µM): 1.03 | relative viability ([22]; first compound 0.01581 µM): 1.15 | relative viability ([22]; first compound 0.05 µM): 1.02 | relative viability ([22]; first compound 0.1581 µM): 1.05 | relative viability ([22]; first compound 0.5 µM): 1.03
